Measurements taken from the NIST ThermoML archive (doi:10.1016/j.jct.2017.08.028).

Conditions: Crystal; for molar entropy: 100 kPa, Small (less than 1 g) adiabatic calorimetry; for mass density: 101.33 kPa, X-ray diffraction

O[C@H]1[C@H](O)[C@@H](O)[C@H](O)[C@@H](O)[C@H]1O [cis-1,2,3,5-trans-4,6-cyclohexanehexol]
Conditions | mass density [kg/m3] | molar entropy [J/K/mol]
5 K | – | 0.0237
6 K | – | 0.0492
7 K | – | 0.091
8 K | – | 0.1546
9 K | – | 0.2451
10 K | – | 0.3742
15 K | – | 1.491
20 K | – | 3.261
25 K | – | 5.458
30 K | – | 7.964
35 K | – | 10.69
40 K | – | 13.58
45 K | – | 16.57
50 K | – | 19.63
60 K | – | 25.97
70 K | – | 32.56
80 K | – | 39.37
90 K | – | 46.36
100 K | – | 53.48
110 K | – | 60.72
120 K | – | 68.03
130 K | – | 75.4
140 K | – | 82.82
150 K | 1577 | 90.26
160 K | – | 97.71
170 K | – | 105.2
175 K | 1574 | –
180 K | – | 112.6
190 K | – | 120.1
200 K | 1574 | 127.6
210 K | – | 135
220 K | – | 142.4
225 K | 1575 | –
230 K | – | 149.9
240 K | – | 157.3
250 K | 1572 | 164.8
260 K | – | 172.2
270 K | – | 179.6
273.15 K | – | 182
275 K | 1570 | –
280 K | – | 187.1
290 K | – | 194.5
298.15 K | – | 200.6
300 K | 1569 | 202
310 K | – | 209.4
320 K | – | 216.9
325 K | 1569 | –
330 K | – | 224.3
340 K | – | 231.8
350 K | 1566 | –
375 K | 1561 | –
400 K | 1559 | –
425 K | 1555 | –
450 K | 1553 | –
